Assay results as given in publication PMC7733455, “A novel multistage antiplasmodial inhibitor targeting Plasmodium falciparum histone deacetylase 1” (Cell Discovery, 2020).
Like-named read-outs stand apart in the source and are kept apart here.

Assays:
[1] = biological target: T1, hHDAC3 (Homo sapiens, UniProt O15379); experiment: Human HDAC inhibition assay, hHDAC3; assay type: biochemical; conditions: performed only once; read-out: Inhibitory Activity IC50, hHDAC3
T1 construct: purchased BPS Bioscience 50003
Experimental: (§1) SAHA and suramin were used as positive controls. The tested compounds were dissolved into 20 mM stock in 100% DMSO. […] Ten microliters of trypsin and Ac-peptide substrate/Tris buffer solution were added to start the reaction, followed by a 1-h incubation at room temperature for HDACs 1–3 and 6. Ten microliters of Ac-peptide substrate/Tris buffer solution was added to start the reaction, followed by a 4-h incubation at room temperature and a further 2-h incubation with trypsin solution for HDAC8 and Sirt 2. […] This experiment was performed only once.

[2] = tested on: drug-sensitive and multidrug-resistant strains of P. falciparum; experiment: 3-day SYBR Green I GIA, summary over several strains; assay type: cell-based; conditions: Plasmodium falciparum
Experimental: (§2) A 3-day SYBR Green I inhibition EC50 assay was performed as described previously. Briefly, highly synchronized ring-stage parasites by 5% sorbitol (1% parasitemia and 2% hematocrit) were incubated in a 96-well plate with compounds in a total volume of 200 μL. […] The parasites were cultured for 72 h before SYBR Green I staining as described above. The EC50 was calculated by GraphPad Prism. DHA was used as a positive control, and the final concentration of DMSO was 1%.

[3] = tested on: P. berghei-ANKA-GFP-luc sporozoites; experiment: In vivo liver-stage parasite inhibition assay; set-up: species or system Plasmodium berghei in BALB/c mice
Experimental: An in vivo liver-stage parasite inhibition assay was conducted as described previously[68],[69]. Briefly, five female BALB/c mice (6 weeks, 18 g) per group were infected with 5000 P. berghei-ANKA-GFP-luc sporozoites by i.v injection followed immediately by i.v.-administered JX21108 at a single dose of 30 mg/kg or 60 mg/kg (day 0). The β-cyclodextrin was used as a blank control. For fluorescence detection, 3 mg of D-luciferin sodium (Sinochrome BC-220–10) in 100 μL of ddH2O was i.p. injected into each mouse. The fluorescence signals were visualized by an IVIS Lumina series (PerkinElmer) on days 1–4, 6, and 8 after infection. All experimental procedures followed the National Institutes of Health Guide for the Care and Use of Laboratory Animals, as well as the guidelines of the Animal Welfare and Committee of Institut Pasteur of Shanghai, Chinese Academy of Science, IACUC issue No. A2018009.

[4] = tested on: P. falciparum NF54 stage IV gametocytes; experiment: In vitro gametocyte inhibition assay, stage IV; assay type: cell-based, Plasmodium falciparum; conditions: NF54 luciferase line, 48 h exposure
Experimental: To test the activities of JX21108 against different gametocyte stages, the P. falciparum producer NF54^p230p-luc was utilized, as described previously. […] Luciferase intensity based on luciferase expression was detected as described above. The EC50 was calculated by GraphPad Prism. DMSO (1%) was used as a negative control.

[5] = tested on: P. falciparum C2A; experiment: 3-day SYBR Green I GIA, strain C2A; assay type: cell-based; conditions: Plasmodium falciparum, read-out: Resistant isolates EC50, C2A
Experimental: as §2

[6] = tested on: 3D7^HDAC1-glmS; experiment: Sensitivity of transgenic parasites to JX21108, 3D7^HDAC1-glmS; assay type: cell-based, Plasmodium falciparum
Experimental: Highly synchronized schizont-stage parasites were prepared and treated as described above, with adjustments. […] After washing, parasites were cultured in new CM for another 68 h. Parasite growth was monitored by SYBR Green I staining, as described above. The EC50 was calculated by GraphPad Prism.

[7] = biological target: T2, hHDAC8 (Homo sapiens, UniProt Q9BY41); experiment: Human HDAC inhibition assay, hHDAC8; assay type: biochemical; conditions: performed only once; read-out: Inhibitory Activity IC50, hHDAC8
T2 construct: purchased BPS Bioscience 50008
Experimental: as §1

[8] = tested on: P. falciparum 3D7; experiment: Ring-stage survival assay (RSA), sensitive strain 3D7; assay type: cell-based, Plasmodium falciparum; conditions: 700 nM
[9] = Liver microsome metabolism assay, mouse; assay type: in vitro ADME; conditions: for half-life at 1 µM: mouse, liver microsomes
Experimental: Liver microsomes (0.5 mg/mL) were purchased from Corning. Ketanserin was selected as a positive control. The tested compounds were first dissolved in DMSO to a concentration of 10 mM and then diluted to 0.5 mM with acetonitrile. Liver microsome buffer was used to dilute the compounds to a working concentration of 1.5 µM, 30 µL of which was mixed with 15 µL of 6 mM NADPH at 37 °C. At 0, 5, 15, 30, and 45 min after incubation, 135 µL of acetonitrile was added to quench the reaction. The mixture was shaken on a vortex mixer (IKA, MTS 2/4) for 10 min at 600 rpm/min and then centrifuged at 5594× g for 15 min (Thermo Multifuge×3R). The supernatant was diluted 1:1 into distilled water, and analyzed by LC-MS/MS.

[10] = biological target: T3, hSirt2 (Homo sapiens, UniProt Q8IXJ6); experiment: Human HDAC inhibition assay, hSirt2; assay type: biochemical; conditions: performed only once; read-out: Inhibitory Activity IC50, hSirt2
T3 construct: purchased BPS Bioscience 50013
Experimental: as §1

[11] = tested on: P. yoelii; experiment: In vivo blood-stage inhibition assay; set-up: species or system Plasmodium yoelii in BALB/c mice
Experimental: Experiment 1: Five female BALB/c mice (6 weeks, 18 g) from each experimental group were infected with 1 × 10^5 rodent malaria parasite P. yoelii via intraperitoneal (i.p) injection. After 24 h, the mice were treated with 30, 60, or 90 mg/kg/day JX21108 via i.p injection and 20 mg/kg/day piperaquine phosphate (PPQ) as a positive control for 5 days. DMSO (5%) was used as a blank control.
Experiment 2: To analyze the differences in drug potency between racemic and enantiopure forms of JX21108, five female BALB/c mice (6 weeks, 18 g) per group were treated with 60 mg/kg/day (+)-JX21108, (−)-JX21108, or JX21108 as described above. Blood smears were made daily from the blood of veins and stained by Giemsa. Parasitemia was counted from at least 5000 RBCs by microscopy. The bodyweight of the mice and the number of deaths were recorded daily. All the graphs were generated by GraphPad Prism. All experimental procedures followed the National Institutes of Health Guide for the Care and Use of Laboratory Animals, as well as the guidelines of the Animal Welfare and Committee of Institut Pasteur of Shanghai, Chinese Academy of Science, IACUC issue No. A2018009.

[12] = 30 mg/kg and 60 mg/kg treatment groups, i.p., 5 days

T2 sequence (Q9BY41 whole entry): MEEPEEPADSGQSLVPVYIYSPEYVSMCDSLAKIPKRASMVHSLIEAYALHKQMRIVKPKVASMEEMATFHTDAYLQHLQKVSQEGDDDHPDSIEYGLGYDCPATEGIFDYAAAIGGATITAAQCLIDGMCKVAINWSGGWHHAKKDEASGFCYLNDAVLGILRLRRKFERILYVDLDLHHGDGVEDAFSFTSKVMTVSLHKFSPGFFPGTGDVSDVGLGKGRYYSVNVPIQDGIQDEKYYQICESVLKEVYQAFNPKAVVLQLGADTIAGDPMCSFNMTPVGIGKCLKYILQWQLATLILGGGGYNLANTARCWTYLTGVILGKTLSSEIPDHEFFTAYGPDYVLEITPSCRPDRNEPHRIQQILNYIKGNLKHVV
T1 sequence (O15379 whole entry): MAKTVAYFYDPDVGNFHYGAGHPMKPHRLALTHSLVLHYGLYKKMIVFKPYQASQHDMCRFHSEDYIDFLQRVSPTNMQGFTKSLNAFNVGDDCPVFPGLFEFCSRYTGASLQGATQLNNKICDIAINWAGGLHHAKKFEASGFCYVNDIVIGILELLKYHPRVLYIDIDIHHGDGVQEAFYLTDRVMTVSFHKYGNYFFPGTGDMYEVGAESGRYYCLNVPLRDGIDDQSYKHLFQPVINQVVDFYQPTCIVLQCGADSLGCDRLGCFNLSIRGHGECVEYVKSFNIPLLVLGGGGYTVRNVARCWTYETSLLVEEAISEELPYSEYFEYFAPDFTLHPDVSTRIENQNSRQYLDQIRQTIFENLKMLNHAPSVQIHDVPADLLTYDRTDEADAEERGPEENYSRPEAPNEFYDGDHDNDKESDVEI
T1 sequence (Q9Y618 395-489 partner limits assumed): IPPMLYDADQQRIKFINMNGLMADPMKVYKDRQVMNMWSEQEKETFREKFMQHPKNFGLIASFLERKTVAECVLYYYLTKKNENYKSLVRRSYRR
T3 sequence (Q8IXJ6 whole entry): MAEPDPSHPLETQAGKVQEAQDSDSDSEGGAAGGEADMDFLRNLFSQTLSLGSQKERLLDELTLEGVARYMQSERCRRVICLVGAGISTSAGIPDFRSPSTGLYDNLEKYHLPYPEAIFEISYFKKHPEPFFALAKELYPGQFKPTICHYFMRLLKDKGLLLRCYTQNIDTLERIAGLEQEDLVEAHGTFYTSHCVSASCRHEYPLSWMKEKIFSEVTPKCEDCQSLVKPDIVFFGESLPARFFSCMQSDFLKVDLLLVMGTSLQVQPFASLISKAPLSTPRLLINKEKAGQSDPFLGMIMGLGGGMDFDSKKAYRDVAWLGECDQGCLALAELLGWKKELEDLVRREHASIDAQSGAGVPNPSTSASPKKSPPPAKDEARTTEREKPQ

For `Cl.Cn1cc(CN2CCC3(CCN(c4ncc(C(=O)NO)cn4)C3)C2)c2cc(C#N)ccc21` (stereo not shown) [JX21108], the IC50 [1] was 19 nM, the EC50 ([2]; three strains tested, read-out: EC50 values on strains GB4, C2A and CP286) was 2 to 8 nM and the EC50 ([2]; variety of geographically representative strains, read-out: EC50 against drug-sensitive and multidrug-resistant strains of P. falciparum) was 2 to 7 nM. The “effect on liver infection or subsequent blood-stage P. berghei infection” value ([3]; single 30 mg/kg dose i.v.) was “did not produce significant effects”, the “liver infection (bioluminescence)” value ([3]; single 60 mg/kg dose i.v., 2 dpi) was “did not show signs of liver infection” and the blood-stage infection ([3]; single 60 mg/kg dose i.v., until 8 dpi) was “nor did the treated mice show any blood-stage infection”. For the same molecule, the EC50 [4] was 5.9 ± 1.97 nM, the EC50 ([4]; Plasmodium falciparum, NF54, 48 h) was 5.85 ± 1.97 nM and the EC50 [5] was 2.9 ± 0.7 nM. The “shift in sensitivity on PfHDAC1 KD” value ([6]; 3D7^HDAC1-glmS vs 3D7^HDAC1-TY1) was 5.5 fold, the EC50 ([6]; Plasmodium falciparum, 3D7, 4 h, read-out: EC50 for 3D7^HDAC1-glmS) was 20.5 ± 6.95 nM and the IC50 [7] was 62 nM. For the same molecule, the “RSA effect on ring-stage parasites of 3D7” value [8] was “efficiently killed the ring-stage parasites”, the CLint scaled at 1 µM ([9]; mouse liver microsomes, read-out: CL in liver microsomes) was 7.32 mL/min/kg and the half-life at 1 µM ([9]; read-out: T1/2 in liver microsomes) was 12.4 h. The half-life at 1 µM ([9]; read-out: half-life in mouse liver microsomes (converted)) was 12.4 h, the IC50 [10] was > 10000 nM and the “day on which parasites were completely cleaned up” value [11, 12] was 17 days. For the same molecule, the “day till which parasites were detected” value [11, 12] was 8 days, the relapse of malaria ([11]; 90 mg/kg treatment group, i.p., 5-day treatment) was “no relapse of malaria was observed” and the “survival of infected mice” value ([11]; JX21108-treated groups 30–90 mg/kg) was “all the mice survived”. For the same molecule, the “in vivo antiplasmodial activity in P. yoelii-infected mice” value ([11]; all doses tested (30–90 mg/kg), i.p., 5 days) was “strong in vivo antiplasmodial activity”.
